Experimental data as given in patent US5925642A, “Pyridopyrimidines” (Byk Gulden Lomberg Chemische Fabrik GmbH, priority 1995, dated 1999).
Structures can show the parent of a compound that is named as a salt.

Target: T1, p-glycoprotein (Homo sapiens, UniProt P08183)
T1 construct: Multidrug-resistant and -sensitive cells of the T-lymphoblastoid leukemia cell lines CCRF-VCR 1000 and CCRF-CEM are withdrawn from the cell culture; endogenous in cells; host or cells: CCRF-VCR 1000 (multidrug-resistant); CCRF-CEM (sensitive)
T1 sequence (P08183 whole entry): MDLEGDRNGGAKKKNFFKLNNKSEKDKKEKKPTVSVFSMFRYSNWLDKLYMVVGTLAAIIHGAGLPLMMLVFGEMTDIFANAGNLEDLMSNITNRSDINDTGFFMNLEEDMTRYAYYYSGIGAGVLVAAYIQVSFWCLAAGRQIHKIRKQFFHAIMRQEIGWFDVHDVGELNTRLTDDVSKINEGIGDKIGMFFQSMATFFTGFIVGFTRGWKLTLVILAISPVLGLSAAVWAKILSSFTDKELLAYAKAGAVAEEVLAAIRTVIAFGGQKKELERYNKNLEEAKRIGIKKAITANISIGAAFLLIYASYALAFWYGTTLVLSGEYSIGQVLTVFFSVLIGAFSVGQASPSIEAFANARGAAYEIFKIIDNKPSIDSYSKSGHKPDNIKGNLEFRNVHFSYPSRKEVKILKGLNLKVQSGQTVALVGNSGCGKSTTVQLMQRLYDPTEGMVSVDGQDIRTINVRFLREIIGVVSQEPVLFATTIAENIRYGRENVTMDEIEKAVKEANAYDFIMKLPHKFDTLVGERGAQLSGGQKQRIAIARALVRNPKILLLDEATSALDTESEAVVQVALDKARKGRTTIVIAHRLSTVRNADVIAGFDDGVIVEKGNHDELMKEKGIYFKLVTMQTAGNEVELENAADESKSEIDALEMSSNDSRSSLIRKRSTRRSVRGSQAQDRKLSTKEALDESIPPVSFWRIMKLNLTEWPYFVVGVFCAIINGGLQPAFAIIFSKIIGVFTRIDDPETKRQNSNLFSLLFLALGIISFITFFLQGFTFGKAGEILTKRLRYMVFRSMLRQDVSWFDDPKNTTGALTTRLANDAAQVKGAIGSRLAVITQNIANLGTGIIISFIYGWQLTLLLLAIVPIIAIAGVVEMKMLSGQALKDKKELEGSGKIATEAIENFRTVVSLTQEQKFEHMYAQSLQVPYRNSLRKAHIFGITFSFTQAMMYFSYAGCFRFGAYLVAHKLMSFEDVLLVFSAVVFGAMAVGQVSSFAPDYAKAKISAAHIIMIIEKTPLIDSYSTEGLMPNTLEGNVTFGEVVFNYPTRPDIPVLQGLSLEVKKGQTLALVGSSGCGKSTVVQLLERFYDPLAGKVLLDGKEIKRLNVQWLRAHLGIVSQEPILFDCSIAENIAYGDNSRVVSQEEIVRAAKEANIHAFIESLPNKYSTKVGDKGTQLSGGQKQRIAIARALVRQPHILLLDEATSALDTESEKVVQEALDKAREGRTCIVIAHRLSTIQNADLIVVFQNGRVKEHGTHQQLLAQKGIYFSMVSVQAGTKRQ
Test: Measurement of P-glycoprotein inhibition (Rhodamine 123 accumulation)
Format: cell-based
Description: Multidrug-resistant and -sensitive cells of the T-lymphoblastoid leukemia cell lines CCRF-VCR 1000 and CCRF-CEM are withdrawn from the cell culture and harvested by centrifugation. The cells are taken up in RPMI medium (pH=7.3) without fetal calf serum and incubated at 37° C. for 30 min with the rising concentrations of resistance modulators. […] The excitation wavelength is 488 nm.
The number of the investigated compounds correspond to the numbers in the examples.

| SMILES | EC50 | pEC50 (CCRF-VCR 1000 and CCRF-CEM cells, Rhodamine 123 0.8 mg/l, 30 min preincubation, 1 h at 37° C., RPMI without fetal calf serum, pH 7.3) |
| --- | --- | --- |
| Cc1nc2ncn(Cc3ccccc3)c(=O)c2c(-c2cccc([N+](=O)[O-])c2)c1C(=O)CCCCCCCCCCN1CCC(c2ccccc2)(c2ccccc2)CC1 [Compound 10] | 25.1 nM | – |
| CCCCn1c(C)nc2nc(C)c(C(=O)CCCCCCCN3CCC(c4ccccc4)(c4ccccc4)CC3)c(-c3cccc([N+](=O)[O-])c3)c2c1=O [Compound 20] | 31.6 nM | – |
| Cc1nc2nc(C)n(Cc3ccccc3)c(=O)c2c(-c2cccc([N+](=O)[O-])c2)c1C(=O)CCCCCCCN1CCC(c2ccccc2)(c2ccccc2)CC1 [Compound 23] | 50.1 nM | – |
| CCCCCn1c(C)nc2nc(C)c(C(=O)CCCCCCCN3CCC(c4ccccc4)(c4ccccc4)CC3)c(-c3cccc([N+](=O)[O-])c3)c2c1=O [Compound 14] | 79.4 nM | – |
| Cc1nc2nc(C)n(CCN3CCCCC3)c(=O)c2c(-c2cccc([N+](=O)[O-])c2)c1C(=O)CCCCCCCN1CCC(c2ccccc2)(c2ccccc2)CC1 [Compound 18] | 50.1 nM | – |
| CCCn1cnc2nc(C)c(C(=O)CCCCCCCCCCN3CCC(c4ccccc4)(c4ccccc4)CC3)c(-c3cccc([N+](=O)[O-])c3)c2c1=O [Compound 7] | 50.1 nM | – |
| Cc1nc2ncn(-c3ccccc3)c(=O)c2c(-c2cccc([N+](=O)[O-])c2)c1C(=O)CCCCCCCCCCN1CCC(c2ccccc2)(c2ccccc2)CC1 [Compound 9] | 63.1 nM | – |
| Cc1nc2ncn(Cc3ccccc3)c(=O)c2c(-c2cccc([N+](=O)[O-])c2)c1C(=O)CCCCCCCN1CCC(c2ccccc2)(c2ccccc2)CC1 [Compound 22] | 39.8 nM | – |
| Cc1nc2ncn(CCN3CCOCC3)c(=O)c2c(-c2cccc([N+](=O)[O-])c2)c1C(=O)CCCCCCCCCCN1CCC(c2ccccc2)(c2ccccc2)CC1 [Compound 12] | 25.1 nM | – |
| CCCCCn1cnc2nc(C)c(C(=O)CCCCCCCCCCN3CCC(c4ccccc4)(c4ccccc4)CC3)c(-c3cccc([N+](=O)[O-])c3)c2c1=O [Compound 8] | 31.6 nM | – |
| CCCCCn1cnc2nc(C)c(C(=O)CCCCCCCN3CCC(c4ccccc4)(c4ccccc4)CC3)c(-c3cccc([N+](=O)[O-])c3)c2c1=O [Compound 4] | 20 nM | – |
| Cc1nc2nc(C)n(-c3ccccc3)c(=O)c2c(-c2cccc([N+](=O)[O-])c2)c1C(=O)CCCCCCCCCCN1CCC(c2ccccc2)(c2ccccc2)CC1 [Compound 2, 3,4-Dihydro-2,7-dimethyl-5-(3-nitrophenyl)-4-oxo-3-phenyl-6-[1-oxo-11-(4,4-diphenyl-1-piperidinyl)undecyl]pyrido[2,3-d]pyrimidine hydrochloride] | 63.1 nM | – |
| Cc1nc2ncn(CCCN3CCOCC3)c(=O)c2c(-c2cccc([N+](=O)[O-])c2)c1C(=O)CCCCCCCCCCN1CCC(c2ccccc2)(c2ccccc2)CC1 [Compound 17] | 25.1 nM | – |
| Cc1nc2nc(C)n(CCCN3CCOCC3)c(=O)c2c(-c2cccc([N+](=O)[O-])c2)c1C(=O)CCCCCCCCCCN1CCC(c2ccccc2)(c2ccccc2)CC1 [Compound 15] | 31.6 nM | – |
| Cc1nc2nc(C)n(CCN3CCOCC3)c(=O)c2c(-c2cccc([N+](=O)[O-])c2)c1C(=O)CCCCCCCN1CCC(c2ccccc2)(c2ccccc2)CC1 [Compound 5] | – | 6.8 |
| Cc1nc2nc(C)n(CCN3CCCCC3)c(=O)c2c(-c2cccc([N+](=O)[O-])c2)c1C(=O)CCCCCCCCCCN1CCC(c2ccccc2)(c2ccccc2)CC1 [Compound 16] | 79.4 nM | – |
| CCCCn1cnc2nc(C)c(C(=O)CCCCCCCN3CCC(c4ccccc4)(c4ccccc4)CC3)c(-c3cccc([N+](=O)[O-])c3)c2c1=O [Compound 21] | 50.1 nM | – |
| CCCCn1c(C)nc2nc(C)c(C(=O)CCCCN3CCC(c4ccccc4)(c4ccccc4)CC3)c(-c3cccc([N+](=O)[O-])c3)c2c1=O [Compound 19] | 100 nM | – |
| Cc1nc2nc(C)n(CCN3CCOCC3)c(=O)c2c(-c2cccc([N+](=O)[O-])c2)c1C(=O)CCCCCCCCCCN1CCC(c2ccccc2)(c2ccccc2)CC1 [Compound 1, 3,4-Dihydro-2,7-dimethyl-3-[2-(4-morpholinyl)ethyl]-5-3-nitrophenyl)-4-oxo-6-[1-oxo-11-(4,4-diphenyl-1-piperidinyl)undecyl]-pyrido[2,3-d]pyrimidine dihydrochloride] | 25.1 nM | – |
| CCCn1cnc2nc(C)c(C(=O)CCCCCCCN3CCC(c4ccccc4)(c4ccccc4)CC3)c(-c3cccc([N+](=O)[O-])c3)c2c1=O [Compound 3] | 25.1 nM | – |
| CCCCn1cnc2nc(C)c(C(=O)CCCCCCCCCCN3CCC(c4ccccc4)(c4ccccc4)CC3)c(-c3cccc([N+](=O)[O-])c3)c2c1=O [Compound 6] | 15.8 nM | – |
| COc1ccc(-n2cnc3nc(C)c(C(=O)CCCCCCCCCCN4CCC(c5ccccc5)(c5ccccc5)CC4)c(-c4cccc([N+](=O)[O-])c4)c3c2=O)cc1 [Compound 11] | 39.8 nM | – |
| CCCn1c(C)nc2nc(C)c(C(=O)CCCCCCCN3CCC(c4ccccc4)(c4ccccc4)CC3)c(-c3cccc([N+](=O)[O-])c3)c2c1=O [Compound 13] | 50.1 nM | – |
